Where two headings read alike, the source gives them in different places.
Experiments:
[1] = tested on: Plasmopara viticola (PLASVI); test: whole plant or invertebrate; type: in vivo; conditions: for pest or weed control at 0.62 ppm: 0.62 ppm alone
[2] = tested on: Phytophthora infestans (PHYTIN); test: whole plant or invertebrate; type: in vivo; conditions: for pest or weed control at 1.85 ppm: read-out: % Disease Control (observed)
[3] = Plasmopara viticola, 48 h, read-out: % Disease Control (observed), 2DP, 1.85 ppm alone
[4] = Phytophthora infestans, 24 h, read-out: % Disease Control (observed), 1DP, 5.56 ppm alone
[5] = Phytophthora infestans, 24 h, read-out: % Disease Control (observed), 1DP, 0.62 ppm alone
[6] = Plasmopara viticola, 48 h, read-out: % Disease Control (observed), 2DP
[7] = PLASVI 2DP, applied alone at 5.56 ppm
[8] = PHYTIN 2DP, applied alone at 5.56 ppm

## COC(=O)CC(NC(=O)[C@@H](NC(=O)OC(C)C)C(C)C)c1ccc(Cl)cc1 (mixture of isomers) [Compound 1, methyl (±)RS-[3-(N-isopropoxycarbonyl-S-valinyl)amino]-3-(4-chlorophenyl)propanoate]
[1]; 2DP, 1.85 ppm alone
  % Disease Control (Observed): 5.3%
[2]; 2DP, 0.62 ppm alone
  % Disease Control (Observed): 7.0%
[2]; in vivo
  % Disease Control (Observed): 40.4%

## C[C@@]1(c2ccc(Oc3ccccc3)cc2)OC(=O)N(Nc2ccccc2)C1=O (racemic) [Famoxadone, famoxadone]
[1]; [3]
  pest or weed control at 1.85 ppm: 31.6%
[2]; Phytophthora infestans, 48 h
  pest or weed control at 1.85 ppm: 47.4%

## CO/C=C(/C(=O)OC)c1ccccc1Oc1cc(Oc2ccccc2C#N)ncn1 [Azoxystrobin, azoxystrobin]
[1]; 3DP, 1.85 ppm alone
  % Disease Control (Observed): 28.1%
[1]; 3DP, 5.56 ppm alone
  % Disease Control (Observed): 59.6%
[2]; 3DP, 5.56 ppm alone
  % Disease Control (Observed): 33.3%

## O=C1C2CC=CCC2C(=O)N1SC(Cl)(Cl)Cl (centres unmarked) [Captan, captan]
[2]; [4]
  pest or weed control at 5.56 ppm: 0%

## N#Cc1c(Cl)c(Cl)c(Cl)c(C#N)c1Cl [Chlorothalonil, chlorothalonil]
[1]; Plasmopara viticola, 24 h, read-out: % Disease Control (observed), 1DP, 1.85 ppm alone
  pest or weed control at 1.85 ppm: 0%
[2]; [4]
  pest or weed control at 5.56 ppm: 0%

## [Cl-].[Cu+2].[Cu+2].[OH-].[OH-].[OH-] [Cu oxychloride, copper oxychloride]
[1]; PLASVI 6DP, applied alone at 38.3 ppm
  % Disease Control (Observed): 3.5%
[2]; 3DP, 5.56 ppm alone
  % Disease Control (Observed): 17.5%
[2]; 3DP, 16.70 ppm alone
  % Disease Control (Observed): 24.6%
[2]; PHYTIN 6DP, applied alone at 12.8 ppm
  % Disease Control (Observed): 0%
[2]; PHYTIN 6DP, applied alone at 38.3 ppm
  % Disease Control (Observed): 22.8%
[2]; Table 10, PHYTIN (3DP) as printed, 16.70 ppm alone
  % Disease Control (Observed): 7.0%

## [Cu+2].[OH-].[OH-] [Cu(OH)2, copper hydroxide]
[1]; 3DP, 16.70 ppm alone
  % Disease Control (Observed): 10.5%
[2]; 3DP, 5.56 ppm alone
  % Disease Control (Observed): 14.0%

## Cc1ccc(-c2c(Cl)nc(C#N)n2S(=O)(=O)N(C)C)cc1 [Cyazofamid, cyazofamid]
[1]; Plasmopara viticola, 72 h, read-out: % Disease Control (observed), 3DP
  pest or weed control at 0.62 ppm: 7%
[2]; Phytophthora infestans, 72 h, read-out: % Disease Control (observed), 3DP, 0.62 ppm alone
  pest or weed control at 0.62 ppm: 82.5%

## CCNc1nc(CC)c(C(=O)NC(C#N)c2cccs2)s1 (centres unmarked) [Ethaboxam, ethaboxam]
[1]; 2DP, 1.85 ppm alone
  % Disease Control (Observed): 50.9%
[1]; 2DP, 5.56 ppm alone
  % Disease Control (Observed): 78.9%
[2]; 2DP, 0.62 ppm alone
  % Disease Control (Observed): 10.5%

## O=[N+]([O-])c1cc(C(F)(F)F)c(Cl)c([N+](=O)[O-])c1Nc1ncc(C(F)(F)F)cc1Cl [Fluazinam, fluazinam]
[1]; [3]
  pest or weed control at 1.85 ppm: 14%
[2]; Phytophthora infestans, 72 h
  pest or weed control at 1.85 ppm: 12.3%
[2]; Phytophthora infestans, 72 h, read-out: % Disease Control (observed), 3DP, 5.56 ppm alone
  pest or weed control at 5.56 ppm: 50.9%

## O=C1c2ccccc2C(=O)N1SC(Cl)(Cl)Cl [Folpet, folpet]
[1]; PLASVI 2DP, applied alone at 4.3 ppm
  % Disease Control (Observed): 1.8%
[1]; PLASVI 2DP, applied alone at 12.8 ppm
  % Disease Control (Observed): 22.8%
[1]; Plasmopara viticola, 24 h, read-out: % Disease Control (observed), 1DP, 5.56 ppm alone
  pest or weed control at 5.56 ppm: 0%
[2]; PHYTIN 2DP, applied alone at 4.3 ppm
  % Disease Control (Observed): 1.8%
[2]; PHYTIN 2DP, applied alone at 12.8 ppm
  % Disease Control (Observed): 5.3%
[2]; [5]
  pest or weed control at 0.62 ppm: 0%

## CC[C@H](CS(=O)(=O)[C@@H](C)c1ccc(C#N)cc1)NC(=O)Oc1ccc(F)cc1 [Formula IIIa, 4-fluorophenyl(1S)-1-({[(1S)-1-(4-cyanophenyl)ethyl]sulfonyl}methyl) propylcarbamate]
[1]; 4DP, 1.9 ppm alone
  % Disease Control (Observed): 14.0%
[1]; 4DP, 1.90 ppm alone
  % Disease Control (Observed): 14.00%
[1]; 4DP, 2.8 ppm alone
  % Disease Control (Observed): 76.3%
[2]; 4DP, 0.3 ppm alone
  % Disease Control (Observed): 19.3%
[2]; 4DP, 0.60 ppm alone
  % Disease Control (Observed): 10.50%
[2]; 4DP, 0.9 ppm alone
  % Disease Control (Observed): 73.7%
[2]; 4DP, 1.9 ppm alone
  % Disease Control (Observed): 78.9%
[2]; 4DP, 1.90 ppm alone
  % Disease Control (Observed): 78.90%

## CCO[PH](=O)O [Fosetyl-Al, fosetyl-Al]
[1]; 7DP, 1.85 ppm alone
  % Disease Control (Observed): 8.8%
[1]; 7DP, 5.56 ppm alone
  % Disease Control (Observed): 10.5%
[1]; 7DP, 16.70 ppm alone
  % Disease Control (Observed): 12.3%
[1]; PLASVI 6DP, applied alone at 33.3 ppm
  % Disease Control (Observed): 0%
[2]; PHYTIN 6DP, applied alone at 11.1 ppm
  % Disease Control (Observed): 0%
[2]; PHYTIN 6DP, applied alone at 33.3 ppm
  % Disease Control (Observed): 0%
[2]; in vivo
  % Disease Control (Observed): 0.0%

## COCC(=O)N(c1c(C)cccc1C)C(C)C(=O)OC (centres unmarked) [Metalaxyl, metalaxyl]
[1]; Plasmopara viticola, 72 h, read-out: % Disease Control (observed), 3DP, 1.90 ppm alone
  pest or weed control at 1.9 ppm: 15.8%
[1]; Plasmopara viticola, 72 h, read-out: % Disease Control (observed), 3DP, 5.60 ppm alone
  pest or weed control at 5.6 ppm: 21.1%
[2]; [4]
  pest or weed control at 5.56 ppm: 0%

## COCC(=O)N(c1c(C)cccc1C)N1CCOC1=O [Oxadixyl, oxadixyl]
[1]; Plasmopara viticola, 24 h, read-out: % Disease Control (observed), 1DP, 0.20 ppm alone (Formula III 0.00 ppm)
  pest or weed control at 0.2 ppm: 19.3%
[2]; [5]
  pest or weed control at 0.62 ppm: 0%
[2]; Phytophthora infestans, 24 h, read-out: % Disease Control (observed), 1DP, 1.90 ppm alone
  pest or weed control at 1.9 ppm: 24.6%

## CO/C=C(/C(=O)OC)c1ccccc1COc1cccc(C(F)(F)F)n1 [Picoxystrobin, picoxystrobin]
[1]; 3DP, 5.56 ppm alone
  % Disease Control (Observed): 61.4%
[2]; 3DP, 5.56 ppm alone
  % Disease Control (Observed): 59.6%

## CCCOC(=O)NCCCN(C)C [Propamocarb, propamocarb]
[1]; Plasmopara viticola, 48 h, read-out: % Disease Control (observed), 2DP, 5.56 ppm alone
  pest or weed control at 5.56 ppm: 0%
[2]; Phytophthora infestans, 48 h
  pest or weed control at 1.85 ppm: 1.8%
[2]; Phytophthora infestans, 48 h, read-out: % Disease Control (observed), 2DP, 0.62 ppm alone
  pest or weed control at 0.62 ppm: 0%

## COC(=O)N(OC)c1ccccc1COc1ccn(-c2ccc(Cl)cc2)n1 [Pyraclostrobin, pyraclostrobin]
[1]; Plasmopara viticola, 24 h, read-out: % Disease Control (observed), 1DP, Table 14, 1.85 ppm alone
  pest or weed control at 1.85 ppm: 0%
[1]; Plasmopara viticola, 24 h, read-out: % Disease Control (observed), 1DP, Table 14, 5.56 ppm alone
  pest or weed control at 5.56 ppm: 0%
[1]; [6]
  pest or weed control at 0.62 ppm: 61.4%
[2]; Phytophthora infestans, 48 h
  pest or weed control at 1.85 ppm: 78.9%
[2]; Phytophthora infestans, 48 h, read-out: % Disease Control (observed), 2DP, 5.56 ppm alone
  pest or weed control at 5.56 ppm: 89.5%

## CON=C(C(=O)OC)c1ccccc1CON=C(C)c1cccc(C(F)(F)F)c1 [Trifloxystrobin, trifloxystrobin]
[1]; [6]
  pest or weed control at 0.62 ppm: 1.8%
[1]; [3]
  pest or weed control at 1.85 ppm: 21.1%
[2]; Phytophthora infestans, 48 h
  pest or weed control at 1.85 ppm: 24.6%

## CCC(C)(NC(=O)c1cc(Cl)c(C)c(Cl)c1)C(=O)CCl (centres unmarked) [Zoxamide, zoxamide]
[1]; 4DP, 1.90 ppm alone
  % Disease Control (Observed): 5.30%
[1]; 4DP, 5.60 ppm alone
  % Disease Control (Observed): 57.90%
[1]; PLASVI 2DP, applied alone at 0.4 ppm
  % Disease Control (Observed): 3.5%
[1]; PLASVI 2DP, applied alone at 1.1 ppm
  % Disease Control (Observed): 21.1%
[1]; PLASVI 2DP, applied alone at 3.3 ppm
  % Disease Control (Observed): 36.8%
[1]; PLASVI 3DP, applied alone at 0.4 ppm
  % Disease Control (Observed): 3.5%
[1]; PLASVI 3DP, applied alone at 1.1 ppm
  % Disease Control (Observed): 17.5%
[1]; PLASVI 6DP, applied alone at 3.3 ppm
  % Disease Control (Observed): 10.5%
[2]; 4DP, 1.90 ppm alone
  % Disease Control (Observed): 55.30%
[2]; 4DP, 11.20 ppm alone
  % Disease Control (Observed): 19.30%
[2]; 4DP, 16.70 ppm alone
  % Disease Control (Observed): 34.90%
[2]; PHYTIN 2DP, applied alone at 0.4 ppm
  % Disease Control (Observed): 1.8%
[2]; PHYTIN 2DP, applied alone at 1.1 ppm
  % Disease Control (Observed): 14%
[2]; PHYTIN 3DP, applied alone at 1.1 ppm
  % Disease Control (Observed): 10.5%
[2]; PHYTIN 6DP, applied alone at 1.1 ppm
  % Disease Control (Observed): 7%
[2]; PHYTIN 6DP, applied alone at 3.3 ppm
  % Disease Control (Observed): 40.4%

## Maneb
[1]; PLASVI 3DP, applied alone at 16.70 ppm
  % Disease Control (Observed): 24.6%
[2]; PHYTIN 3DP, applied alone at 5.56 ppm
  % Disease Control (Observed): 14.0%
[2]; in vivo
  % Disease Control (Observed): 3.5%

## Metiram
[1]; PLASVI 2DP, applied alone at 1.85 ppm
  % Disease Control (Observed): 5.3%
[1]; [7]
  % Disease Control (Observed): 8.8%
[2]; [8]
  % Disease Control (Observed): 0.0%

## Propineb
[1]; [7]
  % Disease Control (Observed): 0.0%
[2]; [8]
  % Disease Control (Observed): 0.0%

## mancozeb
[1]; 1DP, 2.7 ppm alone
  % Disease Control (Observed): 14%
[1]; 1DP, 8.0 ppm alone
  % Disease Control (Observed): 33.3%
[1]; 4DP, 1.9 ppm alone
  % Disease Control (Observed): 0%
[1]; 4DP, 16.7 ppm alone
  % Disease Control (Observed): 12.3%
[1]; PLASVI 3DP, applied alone at 8.9 ppm
  % Disease Control (Observed): 17.5%
[2]; 4DP, 0.60 ppm alone
  % Disease Control (Observed): 5.3%
[2]; 4DP, 1.9 ppm alone
  % Disease Control (Observed): 8.8%
[2]; 4DP, 5.6 ppm alone
  % Disease Control (Observed): 26.3%
[2]; 4DP, 16.70 ppm alone
  % Disease Control (Observed): 40.4%
[2]; PHYTIN 3DP, applied alone at 8.9 ppm
  % Disease Control (Observed): 5.3%
